According to PubChem BioAssay (NCI):
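Tested at 5 concentrations; 48 h exposure; 96-well plates; endpoints linearly interpolated, else capped at highest concentration. The concentration for 50% growth inhibition is given as GI50. TGI: concentration producing complete growth inhibition.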

Experiments:
Assay in all cases: growth of human tumour cells (NCI), 48 h
OVCAR-3 ovarian = system: OVCAR-3 ovarian
HS 578T breast = system: HS 578T breast
HOP-62 NSCLC = system: HOP-62 NSCLC
HL-60(TB) leukemia = system: HL-60(TB) leukemia
NCI-H226 lung = system: NCI-H226 lung
TK-10 renal = system: TK-10 renal
SK-MEL-28 melanoma = system: SK-MEL-28 melanoma
UACC-257 melanoma = system: UACC-257 melanoma
CCRF-CEM leukemia = system: CCRF-CEM leukemia
COLO 205 colon = system: COLO 205 colon
SK-MEL-5 melanoma = system: SK-MEL-5 melanoma
A498 renal = system: A498 renal
T-47D breast = system: T-47D breast
SF-539 CNS = system: SF-539 CNS
NCI-H460 lung = system: NCI-H460 lung
SN12C renal = system: SN12C renal
UACC-62 melanoma = system: UACC-62 melanoma
SF-295 CNS = system: SF-295 CNS
U251 CNS = system: U251 CNS
BT-549 breast = system: BT-549 breast
MDA-MB-231 breast = system: MDA-MB-231 breast
MDA-MB-435 = system: MDA-MB-435
ACHN renal = system: ACHN renal
M14 melanoma = system: M14 melanoma
RPMI-8226 leukemia = system: RPMI-8226 leukemia
OVCAR-5 ovarian = system: OVCAR-5 ovarian
HCC-2998 colon = system: HCC-2998 colon
SR leukemia = system: SR leukemia
MCF7 breast = system: MCF7 breast

Compound: CCN(c1cc(C#CCN2CCOCC2)cc(C(=O)NCc2c(C)cc(C)[nH]c2=O)c1C)C1CCC(N(C)CCOC)CC1 (stereo not drawn)
- GI50 (OVCAR-3 ovarian): > 100 µM
- TGI (OVCAR-3 ovarian): > 100 µM
- GI50 (HS 578T breast): > 100 µM
- TGI (HS 578T breast): > 100 µM
- GI50 (HOP-62 NSCLC): > 100 µM
- TGI (HOP-62 NSCLC): > 100 µM
- GI50 (HL-60(TB) leukemia): > 100 µM
- TGI (HL-60(TB) leukemia): > 100 µM
- GI50 (NCI-H226 lung): > 100 µM
- TGI (NCI-H226 lung): > 100 µM
- GI50 (TK-10 renal): > 100 µM
- TGI (TK-10 renal): > 100 µM
- GI50 (SK-MEL-28 melanoma): > 100 µM
- TGI (SK-MEL-28 melanoma): > 100 µM
- GI50 (UACC-257 melanoma): > 100 µM
- TGI (UACC-257 melanoma): > 100 µM
- GI50 (CCRF-CEM leukemia): > 100 µM
- TGI (CCRF-CEM leukemia): > 100 µM
- GI50 (COLO 205 colon): > 100 µM
- TGI (COLO 205 colon): > 100 µM
- GI50 (SK-MEL-5 melanoma): > 100 µM
- TGI (SK-MEL-5 melanoma): > 100 µM
- GI50 (A498 renal): > 100 µM
- TGI (A498 renal): > 100 µM
- GI50 (T-47D breast): > 100 µM
- TGI (T-47D breast): > 100 µM
- GI50 (SF-539 CNS): > 100 µM
- TGI (SF-539 CNS): > 100 µM
- GI50 (NCI-H460 lung): > 100 µM
- TGI (NCI-H460 lung): > 100 µM
- GI50 (SN12C renal): > 100 µM
- TGI (SN12C renal): > 100 µM
- GI50 (UACC-62 melanoma): > 100 µM
- TGI (UACC-62 melanoma): > 100 µM
- GI50 (SF-295 CNS): > 100 µM
- TGI (SF-295 CNS): > 100 µM
- GI50 (U251 CNS): > 100 µM
- TGI (U251 CNS): > 100 µM
- GI50 (BT-549 breast): > 100 µM
- TGI (BT-549 breast): > 100 µM
- GI50 (MDA-MB-231 breast): > 100 µM
- TGI (MDA-MB-231 breast): > 100 µM
- GI50 (MDA-MB-435): > 100 µM
- TGI (MDA-MB-435): > 100 µM
- GI50 (ACHN renal): > 100 µM
- TGI (ACHN renal): > 100 µM
- GI50 (M14 melanoma): > 100 µM
- TGI (M14 melanoma): > 100 µM
- GI50 (RPMI-8226 leukemia): 7.13 µM
- TGI (RPMI-8226 leukemia): > 100 µM
- GI50 (OVCAR-5 ovarian): > 100 µM
- TGI (OVCAR-5 ovarian): > 100 µM
- GI50 (HCC-2998 colon): > 100 µM
- TGI (HCC-2998 colon): > 100 µM
- GI50 (SR leukemia): 27 µM
- TGI (SR leukemia): > 100 µM
- GI50 (MCF7 breast): > 100 µM
- TGI (MCF7 breast): > 100 µM
